Experimental data published in US7151105B2, “Inhibitors of Hepatitis C virus RNA-dependent RNA polymerase, and compositions and treatments using the same” (Agouron Pharmaceuticals, Inc., priority 2004, dated 2006).

Target: T1, Recombinant HCV polymerase (Hepatitis C virus genotype 1b, UniProt P26663)
T1 construct: Recombinant HCV polymerase was tested for its ability to perform primer/template-directed transcription
Assay: biochemical
Conditions: inhibition of polymerase-directed transcription; 30 min at 30° C; 30 nM enzyme; cpm data in triplicate
Procedure, shortened: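 Primer/template-directed RNA synthesis by 2.5 pmol HCV polymerase on poly(rC)300/biotin-dG12 with 1 μM GTP plus α-32P-GTP, in pH 7.2 Tris buffer with 10 mM MgCl2, for 30 min at 30 °C. Products were filter-captured and counted, with 1% DMSO final. IC50 was fitted from triplicate cpm; percent inhibition was reported where IC50 was impractical.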

T1 sequence (P26663 2420-3010): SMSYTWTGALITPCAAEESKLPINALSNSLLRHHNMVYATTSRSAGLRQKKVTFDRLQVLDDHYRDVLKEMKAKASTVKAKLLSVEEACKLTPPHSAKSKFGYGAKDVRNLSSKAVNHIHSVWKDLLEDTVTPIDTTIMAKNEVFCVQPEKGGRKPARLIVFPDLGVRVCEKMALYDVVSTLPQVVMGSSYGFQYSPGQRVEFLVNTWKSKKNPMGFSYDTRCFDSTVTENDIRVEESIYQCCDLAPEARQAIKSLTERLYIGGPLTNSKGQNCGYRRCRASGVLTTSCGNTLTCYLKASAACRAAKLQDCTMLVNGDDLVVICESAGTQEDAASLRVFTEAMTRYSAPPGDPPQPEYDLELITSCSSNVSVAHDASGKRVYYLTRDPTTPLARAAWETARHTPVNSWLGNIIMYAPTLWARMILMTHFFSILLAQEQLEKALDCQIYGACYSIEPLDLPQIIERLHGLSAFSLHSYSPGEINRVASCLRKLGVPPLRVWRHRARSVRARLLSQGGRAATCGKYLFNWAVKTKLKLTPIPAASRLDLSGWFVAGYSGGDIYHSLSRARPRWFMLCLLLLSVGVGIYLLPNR

| Compound | IC50 [µM] |
| --- | --- |
| CCc1cc(CCC2(C3CCCC3)CC(=O)CC(=O)O2)ccc1-c1ncco1 (stereo not drawn) [A(135), 6-Cyclopentyl-6-{2-[3-ethyl-4-(1,3-oxazol-2-yl)phenyl]ethyl}dihydro-2H-pyran-2,4(3H)-dione] | 0.21 |
| CCc1cc(CCC2(C3CCCC3)CC(O)=C(Cc3nc4ncccn4n3)C(=O)O2)ccc1-c1ncco1 (stereo not drawn) [A(136), 6-Cyclopentyl-6-{2-[3-ethyl-4-(1,3-oxazol-2-yl)phenyl]ethyl}-4-hydroxy-3-([1,2,4]triazolo[1,5-a]pyrimidin-2-ylmethyl)-5,6-dihydro-2H-pyran-2-one] | 0.003 |
| CCc1cc(CCC2(C3CCCC3)CC(O)=C(Cc3nc4ncc(C)cn4n3)C(=O)O2)ccc1-c1ncco1 (stereo not drawn) [A(137), 6-Cyclopentyl-6-{2-[3-ethyl-4-(1,3-oxazol-2-yl)phenyl]ethyl}-4-hydroxy-2-[(6-methyl[1,2,4]triazolo[1,5-a]pyrimidin-2-yl)methyl]-5,6-dihydro-2H-pyran-2-one] | 0.3 |
| Cc1cc(C)n2nc(CC3=C(O)CC(CCc4ccc(S(C)(=O)=O)c(Cl)c4)(C4CCCC4)OC3=O)nc2n1 (stereo not drawn) [B(1), 6-{2-[3-Chloro-4-(methylsulfonyl)phenyl]ethyl}-6-cyclopentyl-3-[(5,7-dimethyl[1,2,4]triazolo[1,5-a]pyrimidin-2-yl)methyl]hydroxy-5,6-dihydro-2H-pyran-2-one] | 0.06 |
| CS(=O)(=O)c1ccc(CCC2(C3CCCC3)CC(=O)CC(=O)O2)cc1Cl (stereo not drawn) [B(2), 6-{2-[3-Chloro-4-(methylsulfonyl)phenyl]ethyl}-6-cyclopentyldihydro-2H-pyran-2,4(3H)-dione] | 48 |
| CS(=O)(=O)c1ccc(CCC2(C3CCCC3)CC(=O)CC(=O)O2)cc1C(F)(F)F (stereo not drawn) [B(3)] | 6.4 |
| Cc1cc(C)n2nc(CC3=C(O)CC(CCc4ccc(S(C)(=O)=O)c(C(F)(F)F)c4)(C4CCCC4)OC3=O)nc2n1 (stereo not drawn) [B(4), 6-Cyclopentyl-3-[(5,7-dimethyl[1,2,4]triazolo[1,5-a]pyrimidin-2-yl)methyl]-4-hydroxy-6-{2-[4-(methylsulfonyl)-3-(trifluoromethyl)phenyl]ethyl}-5,6-dihydro-2H-pyran-2-one] | 0.006 |
| COC(=O)c1ccc(CCC2(C3CCCC3)CC(=O)CC(=O)O2)cc1F (stereo not drawn) [B(5), Methyl 4-[2-(2-cyclopentyl-4,6-dioxotetrahydro-2H-pyran-2-yl)ethyl]-2-fluorobenzoate] | 22 |
| O=C1CC(=O)OC(CCc2ccc(C(=O)O)c(F)c2)(C2CCCC2)C1 (stereo not drawn) [B(6), 4-[2-(2-Cyclopentyl-4,6-dioxotetrahydro-2H-pyran-2-yl)ethyl]-2-fluorobenzoic acid] | 12 |
| COC(=O)c1ccc(CCC2(C3CCCC3)CC(=O)CC(=O)O2)cc1Cl (stereo not drawn) [B(7)] | 7 |
| COC(=O)c1ccc(CCC2(C3CCCC3)CC(O)=C(Cc3nc4nc(C)cc(C)n4n3)C(=O)O2)cc1F (stereo not drawn) [B(8), Methyl 4-(2-{2-cyclopentyl-5-[(5,7-dimethyl[1,2,4]triazolo[1,5-a]pyrimidin-2-yl)methyl]-4-hydroxy-6oxo-3,6-dihydro-2H-pyran-2-yl}ethyl)-2-fluorobenzoate] | 0.029 |
| COC(=O)c1ccc(CCC2(C3CCCC3)CC(O)=C(Cc3nc4nc(C)cc(C)n4n3)C(=O)O2)cc1Cl (stereo not drawn) [B(9), Methyl 2-chloro-4-(2-{2-cyclopentyl-5-[(5,7-dimethyl[1,2,4]triazolo[1,5-a]pyrimidin-2-yl)methyl]-4-hydroxy-6-oxo-3,6-dihydro-2H-pyran-2-yl}ethyl)benzoate] | 0.006 |
| O=C1CC(=O)OC(CCc2ccc(C(=O)O)c(Cl)c2)(C2CCCC2)C1 (stereo not drawn) [B(10)] | 30 |
| Cc1cc(C)n2nc(CC3=C(O)CC(CCc4ccc(C(=O)O)c(F)c4)(C4CCCC4)OC3=O)nc2n1 (stereo not drawn) [B(11), 4-(2-{2-Cyclopentyl-5-[(5,7-dimethyl[1,2,4]triazolo[1,5-a]pyrimidin-2-yl)methyl]-4-hydroxy-6-oxo-3,6dihydro-2H-pyran-2-yl}ethyl)-2-fluorobenzoic acid] | 0.26 |
| Cc1cc(C)n2nc(CC3=C(O)CC(CCc4ccc(C(=O)O)c(Cl)c4)(C4CCCC4)OC3=O)nc2n1 (stereo not drawn) [B(12)] | 0.11 |
| CCOC(=O)c1cnc2nc(CC3=C(O)CC(CCc4ccc(C(C)(C)C#N)c(Cl)c4)(C4CCCC4)OC3=O)nn2c1 (stereo not drawn) [B(13), Ethyl 2-[(6-{2-[3-chloro-4-(1-cyano-1-methylethyl)phenyl]ethyl}-6-cyclopentyl-4-hydroxy-2-oxo-5,6-dihydro-2H-pyran-3-yl)methyl][1,2,4]triazolo[1,5-a]pyrimidine-6-carboxylate] | 0.004 |
| CC(C)(C#N)c1ccc(CCC2(C3CCCC3)CC(O)=C(Cc3cn4nccnc4n3)C(=O)O2)cc1Cl (stereo not drawn) [B(14), 2-(2-Chloro-4-{2-[2-cyclopentyl-4-hydroxy-5-(imidazo[1,2-b][1,2,4]triazin-6-ylmethyl)-6-oxo-3,6-dihydro-2H-pyran-2-yl]ethyl}phenyl)-2-methylpropanenitrile] | 0.026 |
| COc1cc(OC)c(CCC2(C3CCCC3)CC(O)=C(Cc3nc(-c4cnccn4)nn3C)C(=O)O2)cc1Cl (stereo not drawn) [B(15), 6-[2-(5-Chloro-2,4-dimethoxyphenyl)ethyl]-6-cyclopentyl-4-hydroxy-3-[(1-methyl-3-pyrazin-2-yl-1H-1,2,4-triazol-5-yl)methyl]-5,6-dihydro-2H-pyran-2-one] | 0.019 |
| COc1cc(OC)c(CCC2(C3CCCC3)CC(O)=C(Cc3nc(-c4ccccn4)nn3C)C(=O)O2)cc1Cl (stereo not drawn) [B(16), 6-[2-(5-Chloro-2,4-dimethoxyphenyl)ethyl]-6-cyclopentyl-4-hydroxy-3-[(1-methyl-3-pyridin-2-yl-1H-1,2,4-triazol-5-yl)methyl]-5,6-dihydro-2H-pyran-2-one] | 0.053 |
| COc1cc(OC)c(CCC2(C3CCCC3)CC(O)=C(Cc3nc(-c4ccccc4)nn3C)C(=O)O2)cc1Cl (stereo not drawn) [B(17), 6-[2-(5-Chloro-2,4-dimethoxyphenyl)ethyl]-6-cyclopentyl-4-hydroxy-3-[(1-methyl-3-phenyl-1H-1,2,4-triazol-5-yl)methyl]-5,6-dihydro-2H-pyran-2-one] | 0.026 |
| CCn1nc(C)c(CC2=C(O)CC(CCc3cc(Cl)c(OC)cc3OC)(C3CCCC3)OC2=O)c1C (stereo not drawn) [B(18), 6-[2-(5-Chloro-2,4-dimethoxyphenyl)ethyl]-6-cyclopentyl-3-[(1-ethyl-3,5-dimethyl-1H-pyrazol-4-yl)methyl]-4-hydroxy-5,6-dihydro-2H-pyran-2-one] | 0.17 |
| CCn1nc(C)c(CC2=C(O)CC(CCc3ccc(OC(C)C)c(Cl)c3)(C3CCCC3)OC2=O)c1C (stereo not drawn) [B(19), 6-[2-(3-chloro-4-isopropoxyphenyl)ethyl]-6-cyclopentyl-3-[(1-ethyl-3,5-dimethyl-1H-pyrazol-4-yl)methyl]-4-hydroxy-5,6-dihydro-2H-pyran-2-one] | 1.1 |
| CCc1nn2c(=O)cc(CC3=C(O)CC(CCc4ccc(C(C)(C)C#N)c(F)c4)(C4CCCC4)OC3=O)nc2s1 (stereo not drawn) [B(20), 2-[4-(2-{2-Cyclopentyl-5-[(2-ethyl-5-oxo-5H-[1,3,4]thiadiazolo[3,2-a]pyrimidin-7-yl)methyl]-4-hydroxy-6-oxo-3,6-dihydro-2H-pyran-2-yl}ethyl)-2-fluorophenyl]-2-methylpropanenitrile] | 0.005 |
| COc1cc(OC)c(CCC2(C3CCCC3)CC(=O)C(Sc3nc(N)nc4nc[nH]c34)C(=O)O2)cc1Cl (stereo not drawn) [B(21), 3-[(2-Amino-7H-purin-6-yl)thio]-6-[2-(5-chloro-2,4-dimethoxyphenyl)ethyl]-6-cyclopentyldihydro-2H-pyran-2,4(3H)-dione] | 0.178 |
